Patent US20150094264A1, “USE OF OBESTATIN FOR MUSCLE REGENERATION” (UNIVERSIDADE DE SANTIAGO DE COMPOSTELA, priority 2012, published 2015)
Entries after “also recorded” stand apart in the source; their conditions may differ.

Columns and labels:
L6E9 myoblasts [1] = experiment: Cicatrization capacity (migration/invasion) in L6E9 myoblasts; type: cell-based, rat; settings: obestatin 5 nM
Protocol: FIG. 6. Evaluation of the cicatrization capacity (migration/invasion) of obestatin in L6E9 myoblasts. A: the L6E9 myoblasts grew to 100% of confluence in GM and later the damage was induced with a sterile pipette. The cells were maintained in GM or GM-obestatin (5 nM) during 8 and 24 hours after the induction of cell damage (40× magnification). B: quantification of the % of cicatrization (mean±standard error; *, p<0.05).
The L6E9 cells were cultured until reaching a confluence of 100% in GM. Having reached said confluence, the damage was produced by the use of a sterile pipette point which made it possible to perform two linear and perpendicular channels. After the damage, the cells were washed and cultured with GM or GM+obestatin (5 nM). The progress of the migration was immediately photographed after the damage and at 8 and 24 hours, close to the crossing point. The “invaded” area was calculated by tracing the “cicatrization” edge and using ImageJ64 software. The percentage of cicatrization was calculated based on the following equation:% cicatrization=[(area 0 h−area xh)/area 0 h]×100.

L6E9 myotubes = experiment: Activation of regulatory enzymes by obestatin in L6E9 myotubes, immunoblot; type: cell-based, rat; settings: obestatin 5 nM
Protocol: (§1) FIG. 1. Activation of regulatory enzymes of mitogenesis and myogenesis by obestatin in L6E9 myoblasts and myotubes. Effect of obestatin on activity of regulatory enzymes of the mitogenic capacity (ERK 1/2), metabolic capacity (Akt and AMPK) and myogenic capacity (Akt and p38). Based on a dose-response study, the saturating dose for the maximum enzymatic activation is established for a concentration of 5 nM. […] Inactivation of AMPK is described in both cell models. The activation profile discovers bimodal characteristics for the action of obestatin: 1.—mitogenic activation in myoblasts; and, 2.—myogenic activation. The immunoblots are representative of 6 independent assays. […]
(§2) The tissue or cell samples were directly lysed in RIPA buffer [Tris-HCl (pH 7.2), 50 mM; NaCl, 150 mM; EDTA, 1 mM; NP-40, 1% (v/v); Sodium deoxycholate, 0.25% (w/v); protease inhibitors (Sigma); phosphatise inhibitors (Sigma)]. The lysates were clarified by centrifugation (14,000×g during 15 min at 4° C.) and the protein concentration was quantified using QuantiPro™ BCA assay kit (Sigma). […] The immunoreactive bands were detected by chemiluminescence (Pierce ECL Western Blotting Substrate; Thermo Scientific, Ill., USA). […]

AMPKa = experiment: Dephosphorylation/inactivation of AMPKa [pAMPKa(T172)] by obestatin in L6E9 cells, immunoblot; type: cell-based, rat; settings: obestatin 5 nM; L6E9 myoblasts (both cell models)
Protocol: as §1, §2

p38 = experiment: Activation of p38 [pp38(Y138)] by obestatin in L6E9 myoblasts, immunoblot; type: cell-based, rat
Protocol: FIG. 1. Activation of regulatory enzymes of mitogenesis and myogenesis by obestatin in L6E9 myoblasts and myotubes. Effect of obestatin on activity of regulatory enzymes of the mitogenic capacity (ERK 1/2), metabolic capacity (Akt and AMPK) and myogenic capacity (Akt and p38). Based on a dose-response study, the saturating dose for the maximum enzymatic activation is established for a concentration of 5 nM. […] Inactivation of AMPK is described in both cell models. The activation profile discovers bimodal characteristics for the action of obestatin: 1.—mitogenic activation in myoblasts; and, 2.—myogenic activation. The immunoblots are representative of 6 independent assays.
(§3) The studies were performed based on the use of L6E9 rat myoblasts which were maintained in growth medium (GM) formed by DMEM (Dulbecco's Modified Eagle Medium) supplemented with 10% fetal bovine serum (FBS), 100 U/mL penicillin, and 100 U/mL streptomycin. For the differentiation, the cells were cultured at 80-100% of confluence in GM and it was replaced for differentiation medium (DM) formed by DMEM supplemented with 2% FBS, 100 U/mL penicillin, and 100 U/mL streptomycin during 6 days.
(§4) The tissue or cell samples were directly lysed in RIPA buffer [Tris-HCl (pH 7.2), 50 mM; NaCl, 150 mM; EDTA, 1 mM; NP-40, 1% (v/v); Sodium deoxycholate, 0.25% (w/v); protease inhibitors (Sigma); phosphatise inhibitors (Sigma)]. The lysates were clarified by centrifugation (14,000×g during 15 min at 4° C.) and the protein concentration was quantified using QuantiPro™ BCA assay kit (Sigma). For immunoblot, equal amounts of protein were loaded which were fractionated in SOS-PAGE gels and transferred to nitrocellulose membranes. The immunoreactive bands were detected by chemiluminescence (Pierce ECL Western Blotting Substrate; Thermo Scientific, Ill., USA).
To define the mitogenic and myogenic effect of obestatin, the activation capacity was studied of intracellular targets regulating proliferation (ERK1/2) and/or differentiation (p38 and Akt). […]

L6E9 myoblasts [2] = experiment: Mitogenic effect (number of cells) in L6E9 myoblasts in growth medium; type: cell-based, rat
Protocol: FIG. 2. Mitogenic effect of obestatin in L6E9 myoblasts. Mitogenic effect of different doses of obestatin (0.01-100 nM) in L6E9 myoblasts after 48 hours of stimulation in the presence of growth medium [GM: DMEN+10% FBS]. Co: initial number of cells. Control: number of cells after 48 hours in GM. GM+obestatin: number of cells after 48 hours of stimulation with obestatin in GM. The data are expressed as mean±standard error of 4 independent experiments (*, p<0.05).
as §3
Dose-dependent studies performed on myoblasts with different obestatin concentrations (0.01-100 nM) in GM (proliferative conditions) show a maximum increase in the number of cells at 48 hours post-stimulation at a concentration of 5.0 nM obestatin (˜2.2-increased in relation to the control; FIG. 2).

[3] = system: L6E9 cells (rat myoblasts); experiment: Expression of myogenic markers myogenin and MHC in L6E9 cells in differentiation medium, immunoblot; type: cell-based; settings: DM, six days
From the text: FIG. 3. Effect of obestatin on the expression of the myogenic markers myogenin and MHC in L6E9 myoblasts. Effect of the stimulation with different doses of obestatin (0.01-100) on the expression of the myogenic markers myogenin and myosin (MHC) 6 days after the induction of the differentiation by the use of differentiation medium (DM: DMEN+2% FBS). The protein expression levels refer to the levels of myoblasts in growth medium (GM: DMEN+10% FBS), non-differentiated. The data are represented as % with respect to the cell expression in GM (mean±standard error of 6 independent experiments). The evaluation of the degree of expression was performed by immunoblot by the use of the ImageJ64 program (*, p<0.05).
as §3, §4
The L6E9 cells were cultured in DM complemented with different concentrations of obestatin in a range of 0.01-100 nM during six days.

activation dynamics of Akt, p38, ERK1/2 and AMPKa compared with myoblasts (L6E9 myotubes): similar
Substance: obestatin
increase of migration index (cicatrization) in relation to control cells (L6E9 myoblasts [1]; 8 hours after inducing cell damage): 53%
increase of migration index (cicatrization) in relation to control cells (L6E9 myoblasts [1]; 24 hours after inducing cell damage): 21%
effect on AMPKa phosphorylation in T172 [pAMPKa(T172)] (AMPKa): Inactivation; also recorded: dephosphorylates
obestatin concentration at which activation of p38 [pp38(Y138)] was observed (p38): 0.1 nM
obestatin concentration at which pp38(Y138) phosphorylation levels reached saturable values (p38; dose-response): 5 nM
time post-stimulation of maximum pp38(Y138) levels (p38; obestatin 5 nM): 10 min
maximum increase in the number of cells in relation to the control (L6E9 myoblasts [2]; 5.0 nM obestatin, 48 hours post-stimulation, GM (DMEM+10% FBS)): ~2.2
obestatin concentration of maximum increase in the number of cells (L6E9 myoblasts [2]; range 0.01-100 nM, 48 hours, GM): 5.0 nM
increase of MHC expression in relation to the control cells ([3]; 5 nM obestatin): −1.6
increase of myogenin expression in relation to the control cells ([3]; 5 nM obestatin): −1.7
obestatin concentration of maximum effect on myogenin and MHC expression ([3]; range 0.01-100 nM): 5 nM
